Source: PMC12016938, “A small molecule PKCε inhibitor reduces hyperalgesia induced by paclitaxel or opioid withdrawal” (JCI Insight, 2025)
Several values for one entry are separate records, joined by “and”; a condition that tells them apart may be missing. Equal entries are not always repeated. Where two headings read alike, the source gives them in different places.

How the values were obtained:
[1] = Pharmacokinetic studies in rats (plasma and brain); assay type: in vivo; conditions: for Plasma concentration / Brain/Plasma / concentration at 2 h / Plasma 2h/24h / Cmax / concentration at 15 min / concentration at 30 min / concentration at 1 h / concentration at 4 h / concentration at 6 h / concentration at 8 h / concentration at 24 h / half-life / concentration at 5 min: rat
Protocol: Because binding to plasma protein was approximately 90%, we predicted that the free concentration at each time point was 10 times lower than the measured plasma concentration.
Pharmacokinetic studies in rats. Pharmacokinetics studies were contracted to the Drug Metabolism and Pharmacokinetics Core at Scripps Research. CP612 was dissolved at in 10% Tween-80/90% water and administered at 40 mg/kg/5 mL. Six rats were injected i.v. and 6 were injected i.p. Three rats were used to collect a full plasma time course from 5 minutes to 24 hours after dose. Then, brains were collected from these rats at 24 hours and from 3 additional rats at 2 hours after administration of compound. One rat receiving i.p. administration of CP612 was excluded as it had low/nondetectable levels indicating missed i.p. injection in that rat. Plasma samples were diluted 10-fold in blank plasma. Each brain was disrupted in potassium phosphate buffer (pH 7.4; 9 μL per 1mg tissue) on ice using brief sonication pulses. CP612 was detected with an API Triple Quad 5500 LC-MS/MS (SCIEX) using an MRM(+) method: CP612 (463/282, m/z) with carbamazepine (238/195.1, m/z) as an internal standard.

[2] = LogD determination (PBS/n-octanol); assay type: physicochemical; conditions: 1:1 0.1M PBS/n-octanol, mean of duplicate, 37°C
Protocol: LogD determination. Test compounds were diluted by adding 12 μL of 1 mM DMSO stocks to 1,188 μL of 1:1 0.1M PBS/n-octanol in duplicate. Samples were vortexed, shaken at 600 rpm for 3 hours at 37°C. Samples (100 μL) of each phase layer were extracted in 3 volumes of acetonitrile for 15 minutes, centrifuged at 10,000g for 10 minutes, and then analyzed by LC-MS. The ratio of concentrations measured in the organic and aqueous phases was log10 transformed to determine the logD.

[3] = i.v. 40 mg/kg, 2h, individual rat, 40 mg/kg
[4] = i.v. 40 mg/kg, 24h, individual rat, 40 mg/kg
[5] = plasma, ip, 40 mg/kg, i.p. 40 mg/kg, individual rat
[6] = plasma, ip, 40 mg/kg, i.p. 40 mg/kg, mean all rats
[7] = plasma, iv, 40 mg/kg, i.v. 40 mg/kg, individual rat
[8] = plasma, iv, 40 mg/kg, i.v. 40 mg/kg, mean all rats

With `N[C@H](CNC(=O)C1(c2ccc(Cl)cc2)CCCC1)c1ccc(C(=O)Nc2ccncc2)cc1` [CP612] the Plasma concentration ([1]; i.v. 40 mg/kg, 1h, individual rat, 40 mg/kg) was 23.5431 µM and 24.6231 µM, the Brain/Plasma [1, 3] was 0.22 and 0.12 and the Plasma concentration [1, 3] was 15.3138 µM and 16.6530 µM and 15.9834 µM and 12.3331 µM and 12.0740 µM. For the same compound, the concentration at 2 h ([1]; i.v. 40 mg/kg, 2h, individual rat, 40 mg/kg, read-out: Brain concentration) was 3.6719 µM and 1.9223 µM, the Plasma concentration ([1]; i.v. 40 mg/kg, 4h, individual rat, 40 mg/kg) was 4.0175 µM and 4.3414 µM and the Plasma concentration ([1]; i.v. 40 mg/kg, 6h, individual rat, 40 mg/kg) was 1.8230 µM and 1.1599 µM. For the same compound, the Plasma concentration ([1]; i.v. 40 mg/kg, 8h, individual rat, 40 mg/kg) was 1.5465 µM and 1.2657 µM, the Brain/Plasma [1, 4] was 11.80 and 2.82 and 12.90 and the Plasma concentration [1, 4] was 0.1270 µM and 0.2873 µM and 0.1609 µM. For the same compound, the concentration at 2 h ([1]; i.v. 40 mg/kg, 24h, individual rat, 40 mg/kg, read-out: Brain concentration) was 1.4990 µM and 0.8100 µM and 2.0757 µM, the “Plasma 2h/24h” value ([1]; i.v. 40 mg/kg, individual rat, 40 mg/kg) was 88.9456 and 42.9323 and 75.0336 and the “Plasma 2h/24h” value ([1]; i.v. 40 mg/kg, mean all rats) was 68.9705. The “Plasma 2h/24h” value ([1]; i.v. 40 mg/kg, mean of RM Plasma + Brain 24h rats) was 68.9705, the Cmax ([1]; ip, rats, 40 mg/kg i.p., plasma) was 29.3 ± 1 µM and the Cmax ([1]; iv, rats, 40 mg/kg i.v., plasma) was 104 ± 3.1 µM. For the same compound, the concentration at 15 min [1, 5] was 22 µM, the concentration at 15 min [1, 6] was 21.9 µM and the concentration at 30 min [1, 5] was 30.2 µM. It also gave a concentration at 30 min [1, 6] of 25.4 µM, a concentration at 1 h ([1]; plasma, ip, 40 mg/kg, i.p. 40 mg/kg, 1h, individual rat) of 28.3 µM and a concentration at 1 h ([1]; plasma, ip, 40 mg/kg, i.p. 40 mg/kg, 1h, mean all rats) of 28.3 µM. The concentration at 4 h ([1]; plasma, ip, 40 mg/kg, i.p. 40 mg/kg, 4h, individual rat) was 5.16 µM, the concentration at 4 h ([1]; plasma, ip, 40 mg/kg, i.p. 40 mg/kg, 4h, mean all rats) was 5.82 µM and the concentration at 6 h ([1]; plasma, ip, 40 mg/kg, i.p. 40 mg/kg, 6h, individual rat) was 1.91 µM. The concentration at 6 h ([1]; plasma, ip, 40 mg/kg, i.p. 40 mg/kg, 6h, mean all rats) was 1.89 µM, the concentration at 8 h ([1]; plasma, ip, 40 mg/kg, i.p. 40 mg/kg, 8h, individual rat) was 2.29 µM and the concentration at 8 h ([1]; plasma, ip, 40 mg/kg, i.p. 40 mg/kg, 8h, mean all rats) was 2.13 µM. It also gave a concentration at 2 h ([1]; plasma, ip, 40 mg/kg, i.p. 40 mg/kg, 2h, individual rat, read-out: Plasma concentration) of 14.4 µM, a concentration at 2 h ([1]; plasma, ip, 40 mg/kg, i.p. 40 mg/kg, 2h, mean all rats, read-out: Plasma concentration) of 15 µM and a concentration at 2 h ([1]; plasma, ip, 40 mg/kg, i.p. 40 mg/kg, 2h, mean of Plasma 2h, Brain 2h rats, read-out: Plasma concentration) of 15.1 µM. It also gave a concentration at 2 h ([1]; plasma, ip, 40 mg/kg, i.p. 40 mg/kg, 2h, mean of RM Plasma + Brain 24h rats, read-out: Plasma concentration) of 14.7 µM, a concentration at 24 h ([1]; plasma, ip, 40 mg/kg, i.p. 40 mg/kg, 24h, individual rat, read-out: Plasma concentration) of 0.38 µM and a concentration at 24 h ([1]; plasma, ip, 40 mg/kg, i.p. 40 mg/kg, 24h, mean all rats, read-out: Plasma concentration) of 0.498 µM. It also gave a concentration at 24 h ([1]; plasma, ip, 40 mg/kg, i.p. 40 mg/kg, 24h, mean of RM Plasma + Brain 24h rats, read-out: Plasma concentration) of 0.498 µM, a half-life ([1]; plasma, ip, rats, 40 mg/kg i.p.) of 6.8 ± 0.7 h and a concentration at 5 min [1, 7] of 80.3 µM. It also gave a concentration at 5 min [1, 8] of 80.3 µM, a concentration at 15 min [1, 7] of 57 µM and a concentration at 15 min [1, 8] of 52.6 µM. For the same compound, the concentration at 30 min [1, 8] was 28.5 µM, the concentration at 1 h ([1]; plasma, iv, 40 mg/kg, i.v. 40 mg/kg, 1h, individual rat) was 26.4 µM and the concentration at 1 h ([1]; plasma, iv, 40 mg/kg, i.v. 40 mg/kg, 1h, mean all rats) was 24.8 µM. It also gave a concentration at 4 h ([1]; plasma, iv, 40 mg/kg, i.v. 40 mg/kg, 4h, individual rat) of 3.97 µM, a concentration at 4 h ([1]; plasma, iv, 40 mg/kg, i.v. 40 mg/kg, 4h, mean all rats) of 4.11 µM and a concentration at 6 h ([1]; plasma, iv, 40 mg/kg, i.v. 40 mg/kg, 6h, individual rat) of 1.68 µM. For the same compound, the concentration at 6 h ([1]; plasma, iv, 40 mg/kg, i.v. 40 mg/kg, 6h, mean all rats) was 1.55 µM, the concentration at 8 h ([1]; plasma, iv, 40 mg/kg, i.v. 40 mg/kg, 8h, individual rat) was 1.42 µM and the concentration at 8 h ([1]; plasma, iv, 40 mg/kg, i.v. 40 mg/kg, 8h, mean all rats) was 1.41 µM. For the same compound, the concentration at 2 h ([1]; plasma, iv, 40 mg/kg, i.v. 40 mg/kg, 2h, individual rat, read-out: Plasma concentration) was 11.3 µM, the concentration at 2 h ([1]; plasma, iv, 40 mg/kg, i.v. 40 mg/kg, 2h, mean all rats, read-out: Plasma concentration) was 13.9 µM and the concentration at 2 h ([1]; plasma, iv, 40 mg/kg, i.v. 40 mg/kg, 2h, mean of Plasma 2h, Brain 2h rats, read-out: Plasma concentration) was 16 µM. For the same compound, the concentration at 2 h ([1]; plasma, iv, 40 mg/kg, i.v. 40 mg/kg, 2h, mean of RM Plasma + Brain 24h rats, read-out: Plasma concentration) was 11.9 µM, the concentration at 24 h ([1]; plasma, iv, 40 mg/kg, i.v. 40 mg/kg, 24h, mean all rats, read-out: Plasma concentration) was 0.192 µM and the concentration at 24 h ([1]; plasma, iv, 40 mg/kg, i.v. 40 mg/kg, 24h, mean of RM Plasma + Brain 24h rats, read-out: Plasma concentration) was 0.192 µM. The half-life ([1]; plasma, iv, rats, 40 mg/kg i.v.) was 4 ± 0.6 h, the Brain penetration ([1]; rats, i.p. or i.v. injection) was “brain penetrant” and the logD at 3 h [2] was 1.5 ± 0.75. The logD [2] was 1.504.
